Where two headings read alike, the source gives them in different places. One block for each molecule: values may come before it.
Assays:
orthotopic glioma model = experiment: Orthotopic glioma model, antitumor activity in vivo; settings: compared with temozolomide
U87 glioblastoma cells [1] = experiment: U87 cell viability assay with co-treatment by D-glucose, D-mannose or D-galactose (competition); type: cell-based, human; settings: for Viability Protection by D-Mannose Under Hypoxia (IC50 shift) / Viability Protection by D-Mannose Under Normoxia (IC50 shift): co-treatment with 0.1 mM of D-mannose; for Viability Protection by D-Galactose Under Hypoxia (IC50 shift) / Viability Protection by D-Galactose Under Normoxia (IC50 shift): co-treatment with 5 mM of D-galactose; for Viability Protection by D-Glucose Under Hypoxia (IC50 shift) / Viability Protection by D-Glucose Under Normoxia (IC50 shift): co-treatment with 5 mM of D-glucose
Procedure: (§1) Cell viability experiments were carried out in U87 glioblastoma cells with 8000 cells/well in flat bottom 96 well plates. The cells were grown in low glucose (5.4 mM) DMEM/F12 media with 10% FBS and antibiotics. 24 hours after plating, cells were treated with increasing concentration of 2-deoxy-2,2-difluoro-D-arabino-hexopyranose (DFG) for 72 hours in normoxic (21% O2) or hypoxic (0.1% O2) conditions. In addition, to test the ability of monosachamides to compete with DFG in inhibiting glycolysis and glycosylation, cells were treated with increasing concentrations of glucose, mannose or galactose. The experiments were carried out in duplicate (n=2).
(§2) U87 human glioma cancer cells were obtained from the American Type Culture Collection (Manassas, Va.) and maintained in a humidified atmosphere containing 5% CO2 at 37° C. Cells were routinely cultured in DMEM/F12 medium (Invitrogen Corp., Grand Island, N.Y.) supplemented with 10% heat inactivated fetal bovine serum (Hyclone Laboratories Inc., Logan, Utah), 50 IU/ml penicillin and […] streptomycin from GIBCO (Invitrogen). Cell viability experiments were carried out in U87 cells with 8000 cells/well in flat bottom 96 well plates. The cells were grown in low glucose (5.4 mM) DMEM/F12 media supplied with 10% FBS and antibiotics. 24 hours after plating, cells were treated with increasing concentration (1 to 10 mM) of 2-difluoro-D-glucose (DFG) for 72 hours in normoxic (21% O2) or hypoxic (approximately 0.1% O2) conditions. To test the competing ability of glucose, galactose and mannose with DFG, the cells were also treated with increasing concentration of the glucose (5, 10, and 20 mM), galactose (5, 10, and 20 mM) or mannose (0.1, 1, and 5 mM). The experiments were carried out in duplicate (n=2). After 72 hours of treatment, inhibition of cellular proliferation was assessed by the MTT assay. Absorbance was read at a wavelength of 570 nm using a V Max Micro plate reader by Molecular Devices, Inc. (Sunnyvale, Calif.). The cytoctoxicity of 2-DFG was calculated by normalization to the 100% viability of the control (untreated cells) and presented as percent control.

U87 glioblastoma cells [2] = experiment: U87 cell viability (MTT) assay under normoxia and hypoxia; type: cell-based, human; settings: for IC50: Homo sapiens, U-87 MG, 72 h
Procedure: as §1, §2

U87 cells [3] = experiment: Transmission electron microscopy / detection of autophagosomes; type: cell-based, human
Procedure: FIGS. 16a through 16d provides electron micrographs of 2-DFG induced autophagy in U87 cells (5 mM, 72 h treatment, 5.6 mM low glucose media).
(§3) To test the ability of the 2-DFG to induce autophagic cell death, we monitored the increase in acidic vesicular organelles (AVO) using acridine orange staining in U87 cells treated with increasing concentrations of 2-DFG for 72 hours under hypoxia and normoxia. […] Therefore, targeting the energetic metabolism of cancer cells and the autophagic survival response using inhibitors of glycolysis is a promising therapeutic approach for the treatment of cancers that are dependent on glycolysis for survival.

U87 cells [4] = experiment: Cell cycle analysis; type: cell-based, human; settings: 5 mM, 72 h
U87 cells [5] = experiment: Acridine orange staining of acidic vesicular organelles (AVO), autophagy; type: cell-based, human; settings: 72 hours, increasing concentrations, hypoxia and normoxia
Procedure: FIGS. 14a through 14f provide the quantification of 2-DFG induced autophagy in U87 glioma cells after 72 h of normoxia treatment in 5.6 mM low glucose media using acridine orange-acid vesicular organelles (AVO) straining assay.
FIGS. 15a through 15f provide the quantification of 2-DFG induced autophagy in U87 glioma cells after 72 h of hypoxia treatment in 5.6 mM low glucose media using acridine orange-acid vesicular organelles (AVO) straining assay.
as §3

[6] = hypoxia (0.1% O2), 72 hours, low glucose media, read-out: Inhibition under Hypoxia (IC50, U87 cell viability)
[7] = normoxia (21% O2), 72 hours, low glucose media, read-out: Inhibition under Normoxia (IC50, U87 cell viability)

SMILES: O=C[C@@H](F)[C@@H](O)[C@H](O)[C@H](O)CO [2-FM, 2-fluoro-2-deoxy-D-mannose]
- Antitumor activity in vivo (orthotopic glioma model): comparable to that of temozolomide

- IC50 (U87 glioblastoma cells [2]; [6]): ≥ 1800 µM
- IC50 (U87 glioblastoma cells [2]; [7]): ≥ 1800 µM
SMILES: O=CC[C@@H](O)[C@H](O)[C@H](O)CO [2-DG, 2-Deoxy-D-glucose, reference compound]
- Viability Protection by D-Mannose Under Hypoxia (IC50 shift) (U87 glioblastoma cells [1]): ++ (~1.5-2 mM IC50 shift after co-treatment with 0.1 mM of D-mannose)
- Viability Protection by D-Galactose Under Hypoxia (IC50 shift) (U87 glioblastoma cells [1]): − (0-0.5 mM IC50 shift after co-treatment with 5 mM of D-galactose.)
- Viability Protection by D-Glucose Under Hypoxia (IC50 shift) (U87 glioblastoma cells [1]): +++ (>5 mM IC50 shift after co-treatment with 5 mM of D-glucose)
- Viability Protection by D-Mannose Under Normoxia (IC50 shift) (U87 glioblastoma cells [1]): +++ (>5 mM IC50 shift after co-treatment with 0.1 mM of D-mannose)
- Viability Protection by D-Galactose Under Normoxia (IC50 shift) (U87 glioblastoma cells [1]): − (0-0.5 mM IC50 shift after co-treatment with 5 mM of D-galactose.)
- Viability Protection by D-Glucose Under Normoxia (IC50 shift) (U87 glioblastoma cells [1]): + (~1 mM IC50 shift after co-treatment with 5 mM of D-glucose)
- Stimulation of autophagy (detection of autophagosomes after treatment) (U87 cells [3]; U87 Glioblastoma cells, preliminary studies): able to stimulate the process of autophagy
- Antitumor activity in vivo (orthotopic glioma model): comparable to that of temozolomide

- IC50 (U87 glioblastoma cells [2]; [6]): 1500 to 1800 µM
- IC50 (U87 glioblastoma cells [2]; [7]): ≥ 1800 µM
SMILES: OC[C@H]1OC(O)C(F)(F)[C@@H](O)[C@@H]1O (stereo partly drawn) [DFG, 2-Deoxy-2,2-difluoro-D-arabino-hexopyranose]
- Viability Protection by D-Mannose Under Hypoxia (IC50 shift) (U87 glioblastoma cells [1]): − (0-0.5 mM IC50 shift after co-treatment with 0.1 mM of D-mannose)
- Viability Protection by D-Galactose Under Hypoxia (IC50 shift) (U87 glioblastoma cells [1]): − (0-0.5 mM IC50 shift after co-treatment with 5 mM of D-galactose.)
- Viability Protection by D-Glucose Under Hypoxia (IC50 shift) (U87 glioblastoma cells [1]): ++ (~1.5-2 mM IC50 shift after co-treatment with 5 mM of D-glucose)
- Viability Protection by D-Mannose Under Normoxia (IC50 shift) (U87 glioblastoma cells [1]): + (~1 mM IC50 shift after co-treatment with 0.1 mM of D-mannose)
- Viability Protection by D-Galactose Under Normoxia (IC50 shift) (U87 glioblastoma cells [1]): − (0-0.5 mM IC50 shift after co-treatment with 5 mM of D-galactose.)
- Viability Protection by D-Glucose Under Normoxia (IC50 shift) (U87 glioblastoma cells [1]): + (~1 mM IC50 shift after co-treatment with 5 mM of D-glucose)
- Cell cycle distribution: G2/M phase (U87 cells [4]): significant increase in G2/M phase
- Cell cycle distribution: Sub G0/G1 phase (U87 cells [4]): no significant increase in Sub G0/G1 phase
- Acidic vesicular organelles (AVO), acridine orange staining (U87 cells [5]): concentration dependent increase in acridine orange staining
- IC50 (U87 glioblastoma cells [2]; hypoxic conditions (0.1% O2), read-out: IC50 (cytotoxicity in U87 cells)): 1200 µM
- IC50 (U87 glioblastoma cells [2]; normoxic conditions (21% O2), read-out: IC50 (cytotoxicity in U87 cells)): 2900 µM
- Concentration giving substantial inhibition of cellular growth (U87 glioblastoma cells [2]; hypoxic conditions): lower than 4 mM
- Concentration required for substantial inhibition of cellular growth (U87 glioblastoma cells [2]; normoxic conditions): above 6 mM
- Autophagosomes by electron microscopy (U87 cells [3]; 5 mM, 72 h treatment, normoxia): extensive presence of autophagosomes

SMILES: O=C[C@H](F)[C@@H](O)[C@H](O)[C@H](O)CO [2-FG, 2-fluoro-2-deoxy-D-glucose]
- Antitumor activity in vivo (orthotopic glioma model): comparable to that of temozolomide
